In one assay the test system is Puccinia recondita. Briefly: Protective activity against Puccinia recondita on wheat (brown rust of wheat) (Puccrt P1). Type of assay: in vivo. The conditions noted are these: 250 ppm active compound, sprayed to runoff on potted wheat seedlings, inoculated next day; untreated plants 90% infected. As for the experimental part:
The active compounds were prepared separately or jointly as a stock solution comprising 25 mg of active compound which was made up to 10 ml using a mixture of acetone and/or DMSO and the emulsifier Wettol EM 31 (wetting agent having emulsifying and dispersing action based on ethoxylated alkylphenols) in a volume ratio of solvent/emulsifier of 99:1. The mixture was then made up to 100 ml with water. This stock solution was diluted with the solvent/emulsifier/water mixture described to give the concentration of active compound stated below. Leaves of potted wheat seedlings were sprayed to runoff point with an aqueous suspension having the active compound concentration stated below. The next day, the treated plants were inoculated with a spore suspension of brown rust of wheat (Puccinia recondita). The plants were then placed in a chamber with high atmospheric humidity (90 to 95%) at 20 to 22° C. for 24 hours. During this time, the spores germinated and the germ tubes penetrated into the leaf tissue. The next day, the test plants were returned to the greenhouse and cultivated at temperatures between 20 and 22° C. and at 65 to 70% relative atmospheric humidity for a further 7 days. The extent of the rust fungus development on the leaves was then determined visually.

A further assay deals with Pyrenophora teres. Briefly: Activity against net blotch of barley caused by Pyrenophora teres, 1 day protective application (Pyrnte P1). Type of assay: in vivo, Pyrenophora [syn. Drechslera] teres on barley. The conditions noted are these: 250 ppm active compound, sprayed to runoff on potted barley seedlings, inoculated after 24 hours, assessed after 6 days; untreated plants 90% infected. As for the experimental part:
The active compounds were prepared separately or jointly as a stock solution comprising 25 mg of active compound which was made up to 10 ml using a mixture of acetone and/or DMSO and the emulsifier Wettol EM 31 (wetting agent having emulsifying and dispersing action based on ethoxylated alkylphenols) in a volume ratio of solvent/emulsifier of 99:1. The mixture was then made up to 100 ml with water. This stock solution was diluted with the solvent/emulsifier/water mixture described to give the concentration of active compound stated below. Leaves of potted barley seedlings were sprayed to runoff point with an aqueous suspension having the active compound concentration stated below. 24 hours after the spray coating had dried on, the test plants were inoculated with an aqueous spore suspension of Pyrenophora [syn. Drechslera] teres, the net blotch pathogen. The test plants were then placed in a greenhouse at temperatures between 20 and 24° C. and at 95 to 100% relative atmospheric humidity. After 6 days, the extent of the development of the disease was determined visually in % infection of the entire leaf area.

As to `Fc1ccc([C@@]2(Cn3cncn3)O[C@@H]2c2cccnc2Cl)cc1` (racemic) [3-{(2RS,3SR)-3-[(1H-1,2,4-triazol-1-yl)methyl]-3-[4-fluorophenyl]oxiran-2-yl}-2-chloropyridine], the “infection (extent of rust fungus development on the leaves, determined visually)” value in the assay with Puccinia recondita was “not more than 10%”. Besides, in the assay on Pyrenophora teres, the “infection (% infection of the entire leaf area, determined visually)” value is on record as “not more than 20%”.

These data come from patent publication US20090203700A1, “Azolylmethyloxiranes, Their Use for Controlling Phytopathogenic Fungi, and Compositions Comprising Them” (BASF SE, priority 2006, published 2009).
